Measurements taken from patent US4548943A, “Antiinflammatory, analgesic, or anti-primary dysmenorrheal arylmethylene- and arylmethylindenoimidazoles” (E. I. Du Pont de Nemours and Company, priority 1984, dated 1985).
Where two headings read alike, the source gives them in different places.

Key:
[1] = system: phenylquinone writhing (mice); test: Phenylquinone writhing test; assay type: in vivo, mouse (female white); conditions: for ED50: Mus musculus, po, read-out: PQW ED50; for PQW ED50: oral
Protocol: Phenylquinone Writhing Test
A standard procedure for detecting and comparing the analgesic activity of compounds in this series for which there is a good correlation with human efficacy is the standard phenylquinone writhing test modified from Siegmund, et al., Proc. Soc. Exp. Biol. Med., 95, 729 (1957). A test compound suspended in 1% methylcellulose was given orally to fasted (17-21 hours) female white mice, 5-20 animals per double blind test. Aqueous (0.01% phenyl-p-benzoquinone)phenylquinone, 0.20 ml per mouse, was injected intraperitoneally 6 minutes before observations were begun. […] Rev., 11, 115-145 (1947). Data for some of the compounds is summarized in Table 4 together with data for some standard analgetic antiinflammatory drugs.

[2] = system: adjuvant-induced arthritis in rats; test: Established adjuvant-induced arthritis in rats; assay type: in vivo, rat (male Charles River Lewis); conditions: for ED50: Rattus norvegicus, read-out: Adjuvant Arthritis ED50; for Adjuvant Arthritis, decrease in paw volume from controls at dose indicated: @ 9 mg/kg
[3] = molecular target: T1, bovine seminal vesicle prostaglandin synthetase (PGS) (Bos taurus, UniProt O62664); test: Prostaglandin synthetase inhibition assay; assay type: biochemical; conditions: 14C-arachidonic acid 0.02 mM, pH 8.5, 10 minutes
T1 construct: purchased Miles; host or cells: bovine seminal vesicle
T1 sequence (O62664 25-600): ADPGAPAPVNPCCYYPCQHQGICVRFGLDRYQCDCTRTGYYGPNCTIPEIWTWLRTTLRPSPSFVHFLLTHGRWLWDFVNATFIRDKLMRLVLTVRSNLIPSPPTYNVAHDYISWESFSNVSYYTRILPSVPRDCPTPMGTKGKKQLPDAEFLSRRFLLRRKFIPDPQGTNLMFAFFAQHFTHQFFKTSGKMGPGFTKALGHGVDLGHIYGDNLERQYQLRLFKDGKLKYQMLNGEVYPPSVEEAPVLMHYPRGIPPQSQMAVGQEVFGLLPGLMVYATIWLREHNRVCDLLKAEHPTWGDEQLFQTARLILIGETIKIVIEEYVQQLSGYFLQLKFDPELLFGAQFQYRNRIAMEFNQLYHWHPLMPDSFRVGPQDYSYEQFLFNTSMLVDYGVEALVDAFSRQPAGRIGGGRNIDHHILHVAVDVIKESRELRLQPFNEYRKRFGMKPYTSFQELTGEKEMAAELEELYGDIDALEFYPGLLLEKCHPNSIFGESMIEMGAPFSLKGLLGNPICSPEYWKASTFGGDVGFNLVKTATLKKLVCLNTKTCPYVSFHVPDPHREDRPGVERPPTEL
Protocol: Prostaglandin Synthetase Inhibition Assay
The resulting labelled prostaglandins were isolated on small columns of Bio-Sil® A silica gel. The reaction was buffered with 0.13M Tris.Cl (pH 8.5) and included 0.6 mM epinephrine, 2.1 mM reduced glutathione, and 0.09 mM EDTA, which favored PGE2 as the primary product [C. […] Miles bovine seminal vesicle prostaglandin synthetase (20 μg), inhibitor, cofactor, and buffer were mixed and preincubated for two minutes at 37° C. The substrate was added to initiate the reaction which was run for 10 minutes. The reaction was stopped by freezing in a slurry of dry ice/ethanol. All reactions were run in duplicate. Inhibitors were bead-milled overnight and diluted in reaction buffer (0.2M Tris.Cl, pH 8.5). Inhibition was calculated by the following formula: [formula]

[4] = oral, 7 daily doses, ED50 % decrease from control paw volume, uninjected left hind paw
[5] = fasted female white mice, phenylquinone i.p.

## CC(=O)Oc1ccccc1C(=O)O [Aspirin, aspirin, reference compound]
[1]
  ED50: 135 mg/kg

## CC(C)Cc1ccc(C(C)C(=O)O)cc1 (stereo not drawn) [Ibuprofen, ibuprofen, reference compound]
[2]; [4]
  ED50: 80 mg/kg
[1]; [5]
  ED50: 10 mg/kg

## CCCCC1C(=O)N(c2ccccc2)N(c2ccccc2)C1=O [Phenylbutazone, phenylbutazone, reference compound]
[2]; [4]
  ED50: 10 mg/kg
[1]; [5]
  ED50: 80 mg/kg
[3]
  IC50: 270000 nM

## COc1ccc(CC2c3ccccc3-c3nc(S(=O)(=O)C(F)(F)F)[nH]c32)cc1 (stereo not drawn) [Example 4, 1,8-DIHYDRO(OR 3,8-DIHYDRO)-2-(TRIFLUOROMETHYLSULFONYL)-8-[(4-METHOXYPHENYL)METHYL]INDENO[1,2-d]-IMIDAZOLE]
[3]
  IC50: 1200 nM

## [O-][S+](c1nc2c([nH]1)C(=Cc1ccc(F)cc1)c1ccccc1-2)C(F)(F)F (stereo not drawn) [Example 12, 1,8-Dihydro(or 3,8-dihydro)-2-(trifluoromethylsulfinyl)-8-[(4-fluorophenyl)methylene]indeno[1,2-d]imidazole, E isomer]
[2]; oral, 7 daily doses
  Adjuvant Arthritis, decrease in paw volume from controls at dose indicated: 48%
[1]; [5]
  ED50: 0.76 mg/kg
[3]
  IC50: 480 nM

## FC(F)(F)Sc1nc2c([nH]1)/C(=C/c1ccccc1)c1ccccc1-2 [Example 2]
[2]; oral, 7 daily doses
  Adjuvant Arthritis, decrease in paw volume from controls at dose indicated: 12%
[1]; [5]
  ED50: 35 mg/kg
[3]
  IC50: < 75000 nM

## COc1ccc2c(c1)c(CC(=O)O)c(C)n2C(=O)c1ccc(Cl)cc1 [Indomethacin, indomethacin, reference compound]
[2]; po
  ED50: 0.25 mg/kg
[1]
  ED50: 0.35 mg/kg

## COc1ccc(C=C2c3ccccc3-c3nc(SC(F)(F)F)[nH]c32)cc1 [Example 7]
[2]; oral, 7 daily doses
  Adjuvant Arthritis, decrease in paw volume from controls at dose indicated: 39%
[1]; [5]
  ED50: > 108 mg/kg
[3]
  IC50: 580 nM

## O=S(=O)(c1nc2c([nH]1)/C(=C/c1ccccc1)c1ccccc1-2)C(F)(F)F [Example 5, 1,8-Dihydro(or 3,8-dihydro)-2-(trifluoromethylsulfonyl)-8-(phenylmethylene)indeno[1,2-d]imidazole, E isomer]
[2]; [4]
  ED50: 5.3 mg/kg
[1]; [5]
  ED50: 1 mg/kg
[3]
  IC50: 23 nM

## COc1ccc(C=C2c3ccccc3-c3nc(S(=O)(=O)C(F)(F)F)[nH]c32)cc1 [Example 8, 1,8-dihydro(or 3,8-dihydro)-2-(trifluoromethylsulfonyl)-8-[(4-methoxyphenyl)methylene]-indeno[1,2-d]imidazole, Z isomer]
[2]; oral, 7 daily doses
  Adjuvant Arthritis, decrease in paw volume from controls at dose indicated: 5%
[1]; [5]
  PQW ED50: > 36 mg/kg
[3]
  IC50: 310 nM

## O=S(=O)(c1nc2c([nH]1)/C(=C\c1ccccc1)c1ccccc1-2)C(F)(F)F [Example 3]
[2]; oral, 7 daily doses
  Adjuvant Arthritis, decrease in paw volume from controls at dose indicated: 37%
[1]; [5]
  ED50: > 81 mg/kg
[3]
  IC50: 930 nM

## COc1ccc(C=C2c3ccccc3-c3nc(S(=O)(=O)C(F)(F)F)[nH]c32)cc1 [Example 9, 1,8-Dihydro(or 3,8-dihydro)-2-(trifluoromethylsulfonyl)-8-[(4-methoxyphenyl)methylene]indeno[1,2-d]imidazole, E isomer]
[2]; [4]
  ED50: 1.95 mg/kg
[1]; [5]
  PQW ED50: 1.44 mg/kg
[3]
  IC50: 20 nM

## Fc1ccc(C=C2c3ccccc3-c3nc(SC(F)(F)F)[nH]c32)cc1 [Example 11]
[2]; oral, 7 daily doses
  Adjuvant Arthritis, decrease in paw volume from controls at dose indicated: 39%
[1]; [5]
  ED50: 21 mg/kg
[3]
  IC50: 2700 nM

## O=S(=O)(c1nc2c([nH]1)C(=Cc1ccc(F)cc1)c1ccccc1-2)C(F)(F)F [Example 13]
[2]; [4]
  ED50: 9.8 mg/kg
[1]; [5]
  ED50: 53.6 mg/kg
[3]
  IC50: 420 nM
